Data published in US20230212124A1, “SMALL-MOLECULE INHIBITORS OF THE FRS2-FGFR INTERACTION” (UNIVERSITÄT ZÜRICH, priority 2020, published 2023).

Legend:
[1] = In vitro ADMET table: potency; assay type: cell-based
Text: (§1) FIG. 16 Table showing the in vitro absorption, distribution, metabolism, elimination and toxicity (ADMET) properties of F3.14.

FGF signaling pathway = experiment: Immunoblotting / pathway analysis; assay type: cell-based
Procedure: (§2) Cancer cells were treated with bFGF (100 ng/ml) and/or with compounds and lysed using Radioimmunoprecipitation assay (RIPA) buffer. RIPA buffer lysates were resolved by SDS-PAGE and transferred to a nitrocellulose membrane using a transfer apparatus according to the manufacturer's instructions (Bio-Rad). Membranes were probed with primary antibodies against phospho-FRS2, FRS2, ERK1/2, phospho-ERK1/2, AKT, phosphor-AKT, phospho-PKC and tubulin. HRP-linked secondary antibodies (1:5000) were used to detect the primary antibodies. Chemiluminescence detection was performed using ChemiDoc Touch Gel and Western Blot imaging system (BioRad).
as §2, with “RIPA” for “Cancer cells were treated with bFGF (100 ng/ml) and/or with compounds and lysed using Radioimmunoprecipitation assay (RIPA) buffer. RIPA”, “buffer FGFR-driven cell” for “buffer”, “phospho-AKT,” for “phosphor-AKT,”, “(BioRad). Integrated density of Immuno-reactive bands was quantified using Adobe Photoshop CS5.” for “(BioRad).”

FRS2 = target: T1, FRS2 (Homo sapiens, UniProt Q8WU20); experiment: Biophysical binding assays (nanoDSF, MST, NMR); details: MST and NMR analysis
T1 construct: 6xHis
T1 sequence (Q8WU20 1-508): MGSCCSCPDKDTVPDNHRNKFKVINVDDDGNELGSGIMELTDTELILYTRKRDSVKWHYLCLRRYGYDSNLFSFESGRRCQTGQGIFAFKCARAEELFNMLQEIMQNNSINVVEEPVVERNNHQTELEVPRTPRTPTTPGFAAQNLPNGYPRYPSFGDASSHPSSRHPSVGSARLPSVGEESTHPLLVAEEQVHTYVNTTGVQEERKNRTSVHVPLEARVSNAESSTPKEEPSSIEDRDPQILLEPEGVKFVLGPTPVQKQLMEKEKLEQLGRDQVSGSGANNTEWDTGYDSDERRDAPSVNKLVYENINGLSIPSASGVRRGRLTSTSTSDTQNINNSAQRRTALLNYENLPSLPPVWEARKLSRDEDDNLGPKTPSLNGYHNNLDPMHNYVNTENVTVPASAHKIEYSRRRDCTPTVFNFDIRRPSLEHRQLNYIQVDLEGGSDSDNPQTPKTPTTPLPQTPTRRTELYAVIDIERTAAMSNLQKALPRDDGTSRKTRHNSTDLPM
Procedure: Nano Differential Scanning Fluorimetry (nanoDSF)
Purified FRS2 protein tagged with 6× Histidine residues and Guanine nucleotide-binding protein subunit beta (GB1) was diluted in the protein buffer (100 mM sodium phosphate, 50 mM NaCl, 0.5 mM EDTA, 50 mM arginine, 1 mM TCEP, pH 7.0) to final concentration of 30 μM. The compounds were dissolved in 100% at 50 or 100 mM and further diluted to 1 mM with a final concentration of 100% DMSO. Compound and protein were mixed at 1:1 ration yielding final concentrations of 15 μM and 500 μM for the compounds. The mixture was incubated at room temperature for 15 minutes before measurement. The measurement was performed on a Prometheus system in high sensitivity capillaries. Samples were subjected to a temperature gradient of 20 to 95° C. with 1° C./min intervals.
Microscale Thermophoresis (MST)
Purified FRS2 protein tagged with 6× Histidine residues and Guanine nucleotide-binding protein subunit beta (GB1) was labelled with 2nd generation BLUE-NHS dye. The protein was labelled at a final concentration of 20 µM with 60 μM dye. The labelling was performed in the protein buffer without arginine supplementation. Arginine was re-buffered to protein's buffer post-labelling. The compounds were dissolved in 100% at 50 or 100 mM and further diluted to 1 mM with a final concentration of 100% DMSO. […] The interaction was measured in two independent duplicates.

[2] = tested on: FGFR-driven cancer cell lines; experiment: Spheroid invasion assay; assay type: cell-based; details: all the FGFR-driven cancer cell lines tested
Procedure: Spheroid Invasion Assay (S/A) and Automated Cell Dissemination Counter (aCDc)
1000 cells/100 μl per well were seeded in cell-repellent 96 well microplate (650790, Greiner Bio-one). The cells were incubated at 37° C. overnight to form spheroids. 70 μl of the medium were removed from each well, and remaining medium with spheroid overlaid with 2.5% bovine collagen 1. Following the polymerization of collagen, fresh medium was added to the cells and treated with growth factors and/or with inhibitors. The cells were allowed to invade the collagen matrix for 24 h, after which they were fixed with 4% PFA and stained with Hoechst. Images were acquired on an Axio Observer 2 mot plus fluorescence microscope (Zeiss, Munic, Germany) using a 5×objective. Cell invasion is determined as the average of the distance invaded by the cells from the centre of the spheroid as determined using automated cell dissemination counter (aCDc) with our cell dissemination counter software aSDlcs (Kumar et al., Sci Rep 5, 15338 (2015)).

[3] = In vitro ADMET: metabolic stability (intrinsic clearance, t½); assay type: in vitro ADME
Text: as §1

[4] = In vitro ADMET: semi-thermodynamic solubility; assay type: physicochemical; details: aqueous solutions
Text: as §1

[5] = tested on: FGFR-driven cancer cell lines; experiment: Cell titer glo assay; assay type: cell-based; details: all the FGFR-driven cancer cell lines tested
Procedure: The metabolic activity and the proliferation of the cells were determined using the Cell Titer glo assay from Promega according to the manufacturer's instructions. In brief, 250 cells/100 μl/per well (for up to 72 h incubation) were seeded in Greiner Bio-One p-clear 384 well plates (655090, Greiner Bio-One) and incubated overnight at 37° C. The old media was then replaced with fresh serum-free media and the cells were treated with BGJ398 or F3.14 till the desired time point. Following appropriate incubation for each timepoint, 10 μl of the Cell titer glo reagent was added to each well (final concentration of cell titer glo reagent per well is 1:10) and incubated at 37° C. for 30 minutes. The luminescence was then measured with a signal integration time of 0.5 to 1 second per well.

In vivo pharmacokinetics = details: mice, intravenous
Procedure: 3 Healthy non-SCID mice were intravenously treated with F3.14—Blood samples were collected at 2, 4, 6, 8 and 24 hours after treatment. Serum from the collected blood samples were isolated and the concentration of F3.14 in the serum was measure to determine the intrinsic clearance of F3.14.

[6] = In vitro ADMET: toxicity (MTT); assay type: cell-based
Text: as §1

[7] = In vitro ADMET: permeability (efflux ratio); assay type: in vitro ADME
Text: as §1

With `CC(C)C[C@@H](CO)NCc1cc(O)c2cc(F)ccc2n1` [Compound F3.14] the potency [1] was “high”, the “effect on FGF signal transduction (phosphorylation of downstream effectors)” value (FGF signaling pathway) was “inhibits the FGF signal transduction by inhibiting the phosphorylation of the downstream effectors” and the “binding to FRS2” value (FRS2) was “confirmed the binding of F3.14 to FRS2”. For the same compound, the “inhibition of cancer cell invasion” value [2] was “effectively inhibits”, the intrinsic clearance [3] was “moderate” and the solubility [4] was “very good”. The “inhibition of cancer cell proliferation” value [5] was “effectively inhibits”, the tolerability (In vivo pharmacokinetics) was “well-tolerated” and the toxicities [6] was “very low”. For the same compound, the permeability [7] was “good”.
